Data on seven compounds can be found in ChEMBL document CHEMBL1201862, “PubChem BioAssay data set” (2004).

SMILES strings stand for the structures.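 Values below derive from 48-hour exposures of cells grown in 96-well plates, with endpoints linearly interpolated between the two concentrations bracketing the appropriate inhibition level. GI50 = concentration required for 50% inhibition of growth.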 The source made the active and inactive calls. Rule as the data show it: active = GI50 up to about 1.1 µM and inactive = higher. Some results are limits rather than exact numbers.

Test systems include A549; CCRF-CEM; EKVX; HCT-116; HOP-92; HT-29; KM12; MOLT-4; NCI-H226; NCI-H460; NCI-H522; OVCAR-4; OVCAR-5; OVCAR-8; RXF 393; SF-268; SK-MEL-28; SK-MEL-5; SN12C; UACC-62.
Common to all, as to test: inhibition of tumour cell growth, NCI panel, 48 h

Take `CC1(C)CCCCCCCCCC2CC2CCC(C)(C)C1=O` (stereo not given): the GI50 with A549 was 22.9 µM (inactive); in the assay with CCRF-CEM it was 21.6 µM (inactive); with EKVX it was 20.2 µM (inactive); with HCT-116, 16.6 µM (inactive); in the assay on HOP-92, 26.3 µM (inactive); with HT-29, 20.3 µM (inactive). In addition, the GI50 with KM12 was 18.4 µM (inactive); in the assay on MOLT-4 it was 28.5 µM (inactive); with NCI-H226, 14.2 µM (inactive); in the assay on NCI-H460, 21.1 µM (inactive); in the assay on NCI-H522, 15.6 µM (inactive); with OVCAR-4, 32.9 µM (inactive). Further, the GI50 with OVCAR-5 is 21.2 µM (inactive); with OVCAR-8 it was 30.2 µM (inactive); in the assay on RXF 393, 15.4 µM (inactive); in the assay on SF-268, 22.4 µM (inactive); in the assay on SK-MEL-28, 25.9 µM (inactive); in the assay on SK-MEL-5, 22.8 µM (inactive). The figures for the GI50 with SN12C and in the assay on UACC-62 were 18.4 µM (inactive) and 36.1 µM (inactive), respectively.
With `O=C1CCCCC1C(O)(C(F)(F)F)C(F)(F)Cl` (stereo not given), the GI50 in the assay on A549, in the assay with CCRF-CEM, in the assay with EKVX, with HCT-116, with HOP-92 and with HT-29 was > 10 µM (inactive) in each case. Further, the GI50 with KM12, with MOLT-4, with NCI-H226, with NCI-H460, in the assay on NCI-H522 and in the assay on OVCAR-4 was > 10 µM (inactive) in each case. Also, the GI50 with OVCAR-5, in the assay on OVCAR-8, in the assay with RXF 393, in the assay on SF-268, with SK-MEL-28 and with SK-MEL-5 was > 10 µM (inactive) each time. The GI50 with SN12C and with UACC-62 was > 10 µM (inactive) throughout.
With `CC(C)C1=Cc2ccc3c(c2C(=O)C1=O)CCCC3(C)C` [MILTIRONE], the GI50 is 18.3 µM (inactive) in the assay on A549; 1.17 µM (inactive) in the assay on CCRF-CEM; 14.5 µM (inactive) in the assay with EKVX; 1.81 µM (inactive) with HCT-116; 4.18 µM (inactive) with HOP-92; 20.1 µM (inactive) in the assay with HT-29. The GI50 in the assay on KM12 is 16.1 µM (inactive); in the assay with MOLT-4 it was 2.19 µM (inactive); in the assay on NCI-H226, 20.5 µM (inactive); in the assay with NCI-H460 it was 17.3 µM (inactive); in the assay with NCI-H522, 1.79 µM (inactive); with OVCAR-4, 1.77 µM (inactive). In addition, the GI50 in the assay on OVCAR-5 was 19.4 µM (inactive); with OVCAR-8, 4.29 µM (inactive); in the assay on RXF 393, 1.85 µM (inactive); in the assay with SF-268 it was 6.9 µM (inactive); with SK-MEL-28, 5.62 µM (inactive); in the assay on SK-MEL-5 it was 12.3 µM (inactive). Further, the GI50 in the assay with SN12C is 5.56 µM (inactive); in the assay with UACC-62 it was 5.66 µM (inactive).
Turning to `CCC1C(=O)OCc2c1cc1n(c2=O)Cc2cc3ccccc3nc2-1` (stereo not given), the GI50 with A549 is 5.09 µM (inactive); with CCRF-CEM, 0.377 µM (active); in the assay on EKVX, 77.6 µM (inactive); with HCT-116, 8.41 µM (inactive); in the assay with HOP-92, 13.1 µM (inactive); with HT-29, 29.5 µM (inactive). Moreover, the GI50 was 50.9 µM (inactive) with KM12; 0.733 µM (active) in the assay on MOLT-4; 10.8 µM (inactive) with NCI-H226; 0.802 µM (active) in the assay on NCI-H460; 7.73 µM (inactive) in the assay on NCI-H522; > 81.8 µM (inactive) in the assay with OVCAR-4. Also, the GI50 was 33.4 µM (inactive) with OVCAR-5; 5.69 µM (inactive) in the assay with OVCAR-8; 23.8 µM (inactive) with RXF 393; 3.67 µM (inactive) with SF-268; 13.2 µM (inactive) with SK-MEL-28; 5.79 µM (inactive) with SK-MEL-5. The GI50 is 5.07 µM (inactive) with SN12C and 3.72 µM (inactive) in the assay on UACC-62.
In the case of `CCOC(=O)/C=C(/C(=O)OCC)n1cc(C)c(=O)n(Cc2cnnn2COCCOC(C)=O)c1=O`, the GI50 was 50.4 µM (inactive) in the assay with A549; 2.17 µM (inactive) with CCRF-CEM; 14.1 µM (inactive) with EKVX; 13.3 µM (inactive) in the assay on HCT-116; 2.43 µM (inactive) in the assay on HOP-92; 13.9 µM (inactive) with HT-29. Further, the GI50 with KM12 was 21.3 µM (inactive); with MOLT-4 it was 3.94 µM (inactive); in the assay on NCI-H226 it was 17.8 µM (inactive); in the assay on NCI-H460, 24 µM (inactive); in the assay on NCI-H522, 1.58 µM (inactive); in the assay on OVCAR-4, 24.7 µM (inactive). For the same compound, the GI50 is 16.4 µM (inactive) in the assay on OVCAR-5; 14.7 µM (inactive) with OVCAR-8; 2.64 µM (inactive) with RXF 393; 17.4 µM (inactive) in the assay on SF-268; 16.4 µM (inactive) with SK-MEL-28; 20.7 µM (inactive) in the assay on SK-MEL-5. In addition, the GI50 is 22.1 µM (inactive) in the assay on SN12C and 15.2 µM (inactive) with UACC-62.
For the compound `CC1[C@@]2(CCC(C)(C)O2)O[C@@H]2C=C3C4CCC5Cc6nc7c(nc6C[C@@]5(C)C4C[C@H](O)[C@@]3(C)[C@]12O)CC1CCC2C3=C[C@H]4O[C@@]5(O[C@@](C)(CO)C[C@@H]5O)C(C)[C@@]4(O)[C@]3(C)[C@@H](O)CC2[C@]1(C)C7` (stereo not given in full), the GI50 is 0.0953 µM (active) in the assay on A549; 0.0199 µM (active) in the assay on CCRF-CEM; 0.175 µM (active) in the assay with EKVX; 0.12 µM (active) with HCT-116; 0.0524 µM (active) with HOP-92; 0.109 µM (active) with HT-29. In addition, the GI50 in the assay on KM12 was 0.109 µM (active); in the assay with MOLT-4 it was 0.0217 µM (active); with NCI-H226, 0.0428 µM (active); with NCI-H460 it was 0.0388 µM (active); with NCI-H522, 0.00902 µM (active); in the assay with OVCAR-4, 0.723 µM (active). The GI50 is 0.142 µM (active) with OVCAR-5; 0.753 µM (active) with OVCAR-8; 0.00641 µM (active) in the assay with RXF 393; 0.05 µM (active) with SF-268; 0.0553 µM (active) in the assay with SK-MEL-28; 0.0951 µM (active) with SK-MEL-5. Besides, the GI50 was 0.975 µM (active) in the assay on SN12C and 0.0508 µM (active) in the assay on UACC-62.
Regarding `COc1ccc2oc(=O)c(-c3nc4ccccc4o3)cc2c1`, the GI50 with A549, with CCRF-CEM, in the assay with EKVX, with HCT-116, in the assay on HOP-92 and in the assay with HT-29 was > 100 µM (inactive) in each case. In addition, the GI50 with KM12 was 27.4 µM (inactive); in the assay with MOLT-4, > 100 µM (inactive); in the assay on NCI-H226, > 100 µM (inactive); in the assay with NCI-H460, 74 µM (inactive); in the assay on NCI-H522 it was 50.2 µM (inactive); in the assay with OVCAR-4 it was > 100 µM (inactive). The GI50 was > 100 µM (inactive) with OVCAR-5; > 100 µM (inactive) in the assay on OVCAR-8; 53.3 µM (inactive) in the assay on RXF 393; > 100 µM (inactive) in the assay on SF-268; > 100 µM (inactive) in the assay on SK-MEL-28; 39.1 µM (inactive) in the assay on SK-MEL-5. For the same compound, the values for the GI50 in the assay with SN12C and with UACC-62 were > 100 µM (inactive) and 65 µM (inactive), respectively.
